The nature of data set [1]: Induction of NO release in rat H9c2 cells at 10 uM by Griess reagent assay relative to control. In kind it is functional.
Data set [2] concerns H9c2. In words: Induction of NO release in rat H9c2 cells under hypoxia condition at 10 uM by Griess reagent assay relative to control. In kind it is functional. For orientation: Griess reagent forms a coloured azo dye with nitrite.
The subject of data set [3] is Mus musculus. In words: Prevention of myocardial hypoxia injury in isoproterenol-induced male C57 mouse myocardial injury model assessed as decrease in mTORC1 expression at 5 mg/kg, IG once daily for 3 consecutive days by immunohistochemistry. As to conditions: time 3.0 day. It is filed as functional, organism-based.
For data set [4], the system named is Mus musculus. Put plainly: Prevention of myocardial hypoxia injury in isoproterenol-induced male C57 mouse myocardial injury model assessed as prevention of bundle collagen fiber deposition at 5 mg/kg, IG once daily for 3 consecutive days by Masson staining based analysis. Particulars: time 3.0 day. In kind it is functional, organism-based.
The test system of data set [5] is Mus musculus. In words: Prevention of myocardial hypoxia injury in isoproterenol-induced male C57 mouse myocardial injury model assessed as decrease in heart weight ratio at 5 mg/kg, ip once daily for 3 consecutive days (reference value: 0.68%). In kind it is functional. The arrangement: scale not given: the % may be the effect or the level left. As to conditions: time 3 day.

Data set [6] can be described thus: Toxicity in male C57 mouse assessed as adverse effect at 405 mg/kg, ip measured up to 14 days observation period. It is filed as organism-based. Particulars: in vivo, 336 h, time < 14 day.
The test system of data set [7] is Mus musculus. In words: Prevention of myocardial hypoxia injury in isoproterenol-induced male C57 mouse myocardial injury model assessed as pathological myocardial change by measuring myocardial cell damage at 5 mg/kg, IG once daily for 3 consecutive days by hematoxylin and eosin staining based analysis. Particulars: time 3.0 day. It is filed as functional, organism-based.

Data set [8] concerns Mus musculus. Put plainly: Prevention of myocardial hypoxia injury in isoproterenol-induced male C57 mouse myocardial injury model assessed as decrease in myocardial size at 5 mg/kg, ip once daily for 3 consecutive days (reference value: 6.47 mm). In kind it is functional. Particulars: time 3 day.
Data set [9] relates to Mus musculus. In words: Prevention of myocardial hypoxia injury in isoproterenol-induced male C57 mouse myocardial injury model assessed as heart weight ratio at 5 mg/kg, ip once daily for 3 consecutive days (reference value: 0.60%). As to conditions: time 3 day. In kind it is functional.
Data set [10] relates to H9c2. Put plainly: Induction of NO release in rat H9c2 cells under hypoxia condition at 10 uM measured for first 30 mins by Griess reagent assay relative to control. In kind it is functional. Particulars: 0.5 h.
Data set [11] deals with Mus musculus. In words: Prevention of myocardial hypoxia injury in isoproterenol-induced male C57 mouse myocardial injury model assessed as pathological myocardial change by cell damage at 5 mg/kg, ip once daily for 3 consecutive days by hematoxylin and eosin staining based analysis. In kind it is functional, organism-based. As to conditions: time 3.0 day.
In data set [12] the test system is H9c2. In words: Prevention of hypoxia-induced decrease in ATP level in rat H9c2 cells at 10 uM […] (Rvb =- 19.6 nmol/mg). It is filed as ADME, cell-based. As to conditions: h9c2, 10 µM. A general note: Tetrazolium assays rely on reduction of a dye to a coloured formazan, in cell work by metabolically active cells.
Data set [13] concerns Mus musculus. In words: Prevention of myocardial hypoxia injury in isoproterenol-induced male C57 mouse myocardial injury model assessed as prevention of lamellar collagen fiber deposition at 5 mg/kg, IG once daily for 3 consecutive days by Masson staining based analysis. In kind it is functional, organism-based. Particulars: time 3.0 day.
In data set [14] the test system is H9c2. In words: Prevention of hypoxia-induced decrease cell viability of rat H9c2 cells at 10 uM by CCK8 assay. It is filed as functional, cell-based.
The test system of data set [15] is H9c2. Put plainly: Prevention of hypoxia-induced apoptosis in rat H9c2 cells assessed as decrease in late apoptosis and necrosis by measuring reduced red fluorescence at 10 uM incubated for 4 hrs by confocal microscopy with Annexin V-FITC and propidium iodide (PI) double staining analysis. It is filed as functional, cell-based.
The subject of data set [16] is H9c2. In words: Prevention of hypoxia-induced apoptosis in rat H9c2 cells assessed as decrease in early apoptosis by measuring reduced green fluorescence at 10 uM incubated for 4 hrs by confocal microscopy with Annexin V-FITC and propidium iodide (PI) double staining analysis. In kind it is functional, cell-based.
Data set [17] deals with Mus musculus. In words: Prevention of myocardial hypoxia injury in isoproterenol-induced male C57 mouse myocardial injury model assessed as decrease in ACE expression at 5 mg/kg, IG once daily for 3 consecutive days by immunohistochemistry. It is filed as functional, organism-based. Particulars: time 3.0 day.
The subject of data set [18] is Mus musculus. Put plainly: Prevention of myocardial hypoxia injury in isoproterenol-induced male C57 mouse myocardial injury model assessed as prevention of lamellar collagen fiber deposition at 5 mg/kg, ip once daily for 3 consecutive days by Masson staining based analysis. It is filed as functional, organism-based. As to conditions: time 3.0 day.

Structures are written as SMILES. Active and inactive are the calls of the source. The rule behind the calls is not given here.

In data set [1], `CN(N=O)c1ccc(OCc2ccccc2[N+](=O)[O-])cc1` showed an Activity below 5%. The outcome in the data set with H9c2 [2] was Active.

In turn, `CN(N=O)c1ccc(OCc2ccc([N+](=O)[O-])cc2Cl)cc1` registered an Activity in [1] below 5%. The outcome with H9c2 [2] was Active.

On to `O=[N+]([O-])O[C@@H]1CO[C@H]2[C@@H]1OC[C@@H]2O` [ISOSORBIDE MONONITRATE], for which the outcome in the data set on Mus musculus [3], in the data set with H9c2 [16] and with Mus musculus [17] was Active. In addition, the Activity entry was “Active; N6 More Efficacious Than Ismn” in the data set on Mus musculus [4]; 0.61% in the data set with Mus musculus [5]; “Toxic” in [6]; 3.93 mm in the data set on Mus musculus [8]; 0.55% with Mus musculus [9]; around 30% in the data set on H9c2 [10]. In addition, the Activity with H9c2 [12] was 25.3 nmol/mg; in the data set on Mus musculus [13], “Active; N6 More Efficacious Than Ismn”; with H9c2 [14], “Active; Partially Restores Cell Viability”; in the data set on H9c2 [15] it was “Active; Reduced Red Fluorescence To Certain Extents”. Moreover, the result in the data set with Mus musculus [7], in the data set on Mus musculus [11] and with Mus musculus [18] was inactive.

`Cc1ccc([N+](=O)[O-])c(COc2ccc(N(C)N=O)cc2)c1` showed an Activity in data set [1] below 5%.

`CN(N=O)c1ccc(OCc2ccc([N+](=O)[O-])cc2)cc1`: in data set [1], the Activity is listed as below 5%. For the same compound, in the data set on H9c2 [2], the result was Active.

`CN(N=O)c1ccc(OCc2ccc(Br)cc2[N+](=O)[O-])cc1` showed an Activity in [1] below 5%.

In data set [1], `Cc1cc([N+](=O)[O-])ccc1COc1ccc(N(C)N=O)cc1` yielded an Activity below 5%. The outcome in the data set with H9c2 [2] was Active.

The compound `Cc1ccc(COc2ccc(N(C)N=O)cc2)c([N+](=O)[O-])c1` registered an Activity in [1] below 5%.

On to `CN(N=O)c1ccc(OCc2cc(Cl)ccc2[N+](=O)[O-])cc1`, for which, in data set [1], the Activity is given as below 5%.

On to `Cc1cc(COc2ccc(N(C)N=O)cc2)ccc1[N+](=O)[O-]`, for which the Activity in [1] was below 5%.

In turn, `CN(N=O)c1ccc(OCc2ccc(Cl)cc2[N+](=O)[O-])cc1` gave an Activity in data set [1] below 5%.

In [1], `CN(N=O)c1ccc(OCc2c(Cl)cccc2[N+](=O)[O-])cc1` returned an Activity below 5%. Further, in the data set with H9c2 [2], the outcome was Active.
